# Test results as given in patent US9809623B2, “α4β7 peptide monomer and dimer antagonists” (Protagonist Therapeutics, Inc., priority 2014, dated 2017).
# Numbered stars: 1 amine (or outer) side, 2 acyl side, 3 side chain; on linkers, the order of the positions; unused ones are H or OH. Bridge positions count the residues as written; N and C are the ends. Square brackets hold non-standard residues; d marks the D form. Peptide text beside a SMILES is read from it. I, II: the chains in the order shown. Phe(3,4-Cl2) = N[C@@H](Cc1ccc(Cl)c(Cl)c1)C(=O)O; Bip = N[C@@H](Cc1ccc(-c2ccccc2)cc1)C(=O)O; Phe(4-CN) = N#Cc1ccc(C[C@H](N)C(=O)O)cc1; 1Nal = N[C@@H](Cc1cccc2ccccc12)C(=O)O; 2Nal = N[C@@H](Cc1ccc2ccccc2c1)C(=O)O; Diglycolyl = O=C(COCC(=O)[*:2])[*:1]; NMeR = CN[C@@H](CCCNC(=N)N)C(=O)O; β3hE = N[C@@H](CCC(=O)O)CC(=O)O; NMeK = CN[C@@H](CCCCN)C(=O)O; Pen = CC(C)(S)[C@H](N)C(=O)O
# Molecular target: α4β7 (Homo sapiens, UniProt P13612+P26010)
# Test: α4β7-MAdCAM Cell Adhesion Assay (RPMI 8866 human cells)
# Assay type: cell-based
# Design: host or cells: RPMI 8866 human B lymphoblastoid cells
# Conditions: Table 3-B, Potency (α4β7); range classes; read-out: α4β7 cell (Hu) IC50
# Description: RPMI 8866 human cells (Sigma #95041316) were cultured in RPMI 1640 HEPES medium (Invitrogen #22400-089) supplemented with 10% serum (Fetal Bovine Serum, Invitrogen #16140-071), 1 mM sodium pyruvate (Invitrogen #11360-070), 2 mM L-glutamine (Invitrogen #25030-081) and Penicillin-Streptomycin (Invitrogen #15140-122) at 100 units of penicillin and 100 μg of streptomycin per ml. The cells were washed two times in DMEM medium (ATCC #30-2002) supplemented with 0.1% BSA, 10 mM HEPES pH 7 and 1 mM MnCl2. The cells were re-suspended in supplemented DMEM medium at a density of 4×10^6 cells/ml.
# A Nunc MaxiSorp plate was coated with rh MAdCAM-1/Fc Chimera (R&D #6065-MC) at 200 ng per well in 50 ul per well in 1×PBS and incubated at 4° C. overnight. The solution was then removed by shaking, blocked with 250 ul per well PBS containing 1% BSA, and incubated at 37° C. for 1 hr. The solution was removed by shaking. Peptides were diluted by serial dilution in a final volume of 50 ul per well (2× concentration). To each well, 50 ul of cells (200,000 cells) were added and the plate was incubated at 37° C., 5% CO2 for 30-45 min to allow cell adhesion. The wells were washed manually three times (100 ul per wash) with supplemented DMEM. After the final wash, 100 ul/well of supplemented DMEM and 10 ul/well of MTT reagent (ATTC cat#30-1010K) were added. The plate was incubated at 37° C., 5% CO2 for 2-3 hrs until a purple precipitate was visible. 100 ul of Detergent Reagent (ATTC cat#30-1010K) was added to each well. The plate was covered from the light, wrapped in Parafilm to prevent evaporation, and left overnight at room temperature in the dark. The plate was shaken for 5 min and the absorbance at 570 nm was measured. To calculate the dose response, the absorbance value of control wells not containing cells was subtracted from each test well.
# α4β7, sequence (P13612 34-1032): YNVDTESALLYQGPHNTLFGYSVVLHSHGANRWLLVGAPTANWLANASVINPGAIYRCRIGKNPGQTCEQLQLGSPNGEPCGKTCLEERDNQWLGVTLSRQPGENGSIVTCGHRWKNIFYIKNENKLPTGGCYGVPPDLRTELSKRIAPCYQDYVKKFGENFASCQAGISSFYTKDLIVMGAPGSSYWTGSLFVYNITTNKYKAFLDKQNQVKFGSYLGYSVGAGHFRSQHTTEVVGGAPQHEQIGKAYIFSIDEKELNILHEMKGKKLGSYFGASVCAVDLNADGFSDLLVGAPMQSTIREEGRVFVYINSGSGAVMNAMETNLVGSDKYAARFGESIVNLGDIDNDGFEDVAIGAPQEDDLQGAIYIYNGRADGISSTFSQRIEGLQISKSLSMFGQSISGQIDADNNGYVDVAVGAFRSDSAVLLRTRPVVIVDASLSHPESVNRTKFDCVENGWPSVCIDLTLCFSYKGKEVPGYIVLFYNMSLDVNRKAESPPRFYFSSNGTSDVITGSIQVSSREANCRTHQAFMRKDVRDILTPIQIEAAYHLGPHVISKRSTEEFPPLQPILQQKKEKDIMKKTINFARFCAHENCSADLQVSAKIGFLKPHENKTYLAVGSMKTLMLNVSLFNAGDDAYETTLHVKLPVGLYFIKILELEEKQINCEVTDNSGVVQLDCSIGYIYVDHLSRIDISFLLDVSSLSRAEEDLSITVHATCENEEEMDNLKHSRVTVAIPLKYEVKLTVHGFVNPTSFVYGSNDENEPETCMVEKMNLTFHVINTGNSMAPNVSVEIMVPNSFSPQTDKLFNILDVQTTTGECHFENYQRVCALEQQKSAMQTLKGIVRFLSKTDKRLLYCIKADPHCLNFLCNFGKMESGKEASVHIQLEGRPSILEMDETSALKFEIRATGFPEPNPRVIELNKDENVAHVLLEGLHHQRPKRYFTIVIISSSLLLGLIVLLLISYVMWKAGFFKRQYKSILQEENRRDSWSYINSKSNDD
# α4β7, sequence (P26010 20-798): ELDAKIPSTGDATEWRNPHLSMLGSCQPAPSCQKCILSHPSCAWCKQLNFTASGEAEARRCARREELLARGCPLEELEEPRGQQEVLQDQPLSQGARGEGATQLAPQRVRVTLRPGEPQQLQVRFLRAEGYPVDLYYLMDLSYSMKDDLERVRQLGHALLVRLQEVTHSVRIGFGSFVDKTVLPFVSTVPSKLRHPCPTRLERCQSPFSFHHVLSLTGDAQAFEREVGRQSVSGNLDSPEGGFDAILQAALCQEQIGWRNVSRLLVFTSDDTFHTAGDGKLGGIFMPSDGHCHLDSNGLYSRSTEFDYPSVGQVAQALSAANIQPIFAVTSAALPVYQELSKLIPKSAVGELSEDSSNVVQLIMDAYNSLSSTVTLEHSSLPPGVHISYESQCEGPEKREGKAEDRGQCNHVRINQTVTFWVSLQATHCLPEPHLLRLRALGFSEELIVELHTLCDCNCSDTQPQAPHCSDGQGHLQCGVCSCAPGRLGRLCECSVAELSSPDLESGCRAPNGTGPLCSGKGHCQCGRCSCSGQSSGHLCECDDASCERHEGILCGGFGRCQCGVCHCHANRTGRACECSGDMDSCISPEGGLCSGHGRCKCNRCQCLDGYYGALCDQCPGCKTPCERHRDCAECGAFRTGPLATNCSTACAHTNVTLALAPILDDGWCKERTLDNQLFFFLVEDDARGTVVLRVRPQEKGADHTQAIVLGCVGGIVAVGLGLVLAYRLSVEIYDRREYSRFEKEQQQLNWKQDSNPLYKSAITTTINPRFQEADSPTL
row,Compound,IC50
1,"CC(=O)N[C@@H]1C(=O)N(C)[C@@H](CCCNC(=N)N)C(=O)N[C@@H](CO)C(=O)N[C@@H](CC(=O)O)C(=O)N[C@@H]([C@@H](C)O)C(=O)N[C@@H](CC(C)C)C(=O)N[C@H](C(=O)N[C@@H](Cc2ccc(Cl)c(Cl)c2)C(=O)N[C@H](CCC(=O)O)C(=O)N[C@H](CCCCNC(=O)COCC(=O)NCCCC[C@@H](NC(=O)[C@@H](CCC(=O)O)NC(=O)[C@H](Cc2ccc(Cl)c(Cl)c2)NC(=O)[C@H]2NC(=O)[C@H](CC(C)C)NC(=O)[C@H]([C@@H](C)O)NC(=O)[C@H](CC(=O)O)NC(=O)[C@H](CO)NC(=O)[C@H](CCCNC(=N)N)N(C)C(=O)[C@@H](NC(C)=O)C(C)(C)SSC2(C)C)C(N)=O)C(N)=O)C(C)(C)SSC1(C)C [compound 102] (I: Ac-[Pen][NMeR]SDTL[Pen][Phe(3,4-Cl2)][dE][dK]-NH2 / II: Ac-[Pen][NMeR]SDTL[Pen][Phe(3,4-Cl2)][dE][dK]-NH2; disulfide I:1-I:7, II:1-II:7; linker I:10-II:10 via Diglycolyl)",0.1 to 0.5 µM
2,"CC(=O)N[C@@H]1C(=O)N(C)[C@@H](CCCNC(=N)N)C(=O)N[C@@H](CO)C(=O)N[C@@H](CC(=O)O)C(=O)N[C@@H]([C@@H](C)O)C(=O)N[C@@H](CC(C)C)C(=O)N[C@H](C(=O)N[C@H](Cc2c[nH]c3ccccc23)C(=O)N[C@@H](CCC(=O)O)C(=O)N[C@H](CCCCNC(=O)COCC(=O)NCCCC[C@@H](NC(=O)[C@H](CCC(=O)O)NC(=O)[C@@H](Cc2c[nH]c3ccccc23)NC(=O)[C@H]2NC(=O)[C@H](CC(C)C)NC(=O)[C@H]([C@@H](C)O)NC(=O)[C@H](CC(=O)O)NC(=O)[C@H](CO)NC(=O)[C@H](CCCNC(=N)N)N(C)C(=O)[C@@H](NC(C)=O)C(C)(C)SSC2(C)C)C(N)=O)C(N)=O)C(C)(C)SSC1(C)C [compound 28] (I: Ac-[Pen][NMeR]SDTL[Pen][dW]E[dK]-NH2 / II: Ac-[Pen][NMeR]SDTL[Pen][dW]E[dK]-NH2; disulfide I:1-I:7, II:1-II:7; linker I:10-II:10 via Diglycolyl)",0.05 to 0.1 µM
3,"CC(=O)N[C@@H]1C(=O)N(C)[C@@H](CCCNC(=N)N)C(=O)N[C@@H](CO)C(=O)N[C@@H](CC(=O)O)C(=O)N[C@@H]([C@@H](C)O)C(=O)N[C@@H](CC(C)C)C(=O)N[C@H](C(=O)N[C@@H](Cc2ccc3ccccc3c2)C(=O)N[C@H](CCCNC(=N)N)C(=O)N[C@H](CCCCNC(=O)COCC(=O)NCCCC[C@@H](NC(=O)[C@@H](CCCNC(=N)N)NC(=O)[C@H](Cc2ccc3ccccc3c2)NC(=O)[C@H]2NC(=O)[C@H](CC(C)C)NC(=O)[C@H]([C@@H](C)O)NC(=O)[C@H](CC(=O)O)NC(=O)[C@H](CO)NC(=O)[C@H](CCCNC(=N)N)N(C)C(=O)[C@@H](NC(C)=O)C(C)(C)SSC2(C)C)C(N)=O)C(N)=O)C(C)(C)SSC1(C)C [compound 120] (I: Ac-[Pen][NMeR]SDTL[Pen][2Nal][dR][dK]-NH2 / II: Ac-[Pen][NMeR]SDTL[Pen][2Nal][dR][dK]-NH2; disulfide I:1-I:7, II:1-II:7; linker I:10-II:10 via Diglycolyl)",1 to 10 µM
4,"CC(=O)N[C@@H]1C(=O)N(C)[C@@H](CCCNC(=N)N)C(=O)N[C@@H](CO)C(=O)N[C@@H](CC(=O)O)C(=O)N[C@@H]([C@@H](C)O)C(=O)N[C@@H](CC(C)C)C(=O)N[C@H](C(=O)N[C@@H](Cc2c[nH]c3ccccc23)C(=O)N[C@@H](CCC(N)=O)C(=O)N[C@H](CCCCNC(=O)COCC(=O)NCCCC[C@@H](NC(=O)[C@H](CCC(N)=O)NC(=O)[C@H](Cc2c[nH]c3ccccc23)NC(=O)[C@H]2NC(=O)[C@H](CC(C)C)NC(=O)[C@H]([C@@H](C)O)NC(=O)[C@H](CC(=O)O)NC(=O)[C@H](CO)NC(=O)[C@H](CCCNC(=N)N)N(C)C(=O)[C@@H](NC(C)=O)C(C)(C)SSC2(C)C)C(N)=O)C(N)=O)C(C)(C)SSC1(C)C [compound 82] (I: Ac-[Pen][NMeR]SDTL[Pen]WQ[dK]-NH2 / II: Ac-[Pen][NMeR]SDTL[Pen]WQ[dK]-NH2; disulfide I:1-I:7, II:1-II:7; linker I:10-II:10 via Diglycolyl)",0.05 to 0.1 µM
5,"CC(=O)N[C@@H]1C(=O)N(C)[C@@H](CCCNC(=N)N)C(=O)N[C@@H](CO)C(=O)N[C@@H](CC(=O)O)C(=O)N[C@@H]([C@@H](C)O)C(=O)N[C@@H](CC(C)C)C(=O)N[C@H](C(=O)N[C@@H](Cc2ccc(-c3ccccc3)cc2)C(=O)N[C@@H](CCC(=O)O)C(=O)N(C)[C@@H](CCCCNC(=O)COCC(=O)NCCCC[C@@H](C(N)=O)N(C)C(=O)[C@H](CCC(=O)O)NC(=O)[C@H](Cc2ccc(-c3ccccc3)cc2)NC(=O)[C@H]2NC(=O)[C@H](CC(C)C)NC(=O)[C@H]([C@@H](C)O)NC(=O)[C@H](CC(=O)O)NC(=O)[C@H](CO)NC(=O)[C@H](CCCNC(=N)N)N(C)C(=O)[C@@H](NC(C)=O)C(C)(C)SSC2(C)C)C(N)=O)C(C)(C)SSC1(C)C [compound 136] (I: Ac-[Pen][NMeR]SDTL[Pen][Bip]E[NMeK]-NH2 / II: Ac-[Pen][NMeR]SDTL[Pen][Bip]E[NMeK]-NH2; disulfide I:1-I:7, II:1-II:7; linker I:10-II:10 via Diglycolyl)",< 0.01 µM
6,"CC(=O)N[C@@H]1C(=O)N(C)[C@@H](CCCNC(=N)N)C(=O)N[C@@H](CO)C(=O)N[C@@H](CC(=O)O)C(=O)N[C@@H]([C@@H](C)O)C(=O)N[C@@H](CC(C)C)C(=O)N[C@H](C(=O)N[C@@H](Cc2ccc(C#N)cc2)C(=O)N[C@@H](CCC(=O)O)CC(=O)N[C@H](CCCCNC(=O)COCC(=O)NCCCC[C@@H](NC(=O)C[C@H](CCC(=O)O)NC(=O)[C@H](Cc2ccc(C#N)cc2)NC(=O)[C@H]2NC(=O)[C@H](CC(C)C)NC(=O)[C@H]([C@@H](C)O)NC(=O)[C@H](CC(=O)O)NC(=O)[C@H](CO)NC(=O)[C@H](CCCNC(=N)N)N(C)C(=O)[C@@H](NC(C)=O)C(C)(C)SSC2(C)C)C(N)=O)C(N)=O)C(C)(C)SSC1(C)C [compound 139] (I: Ac-[Pen][NMeR]SDTL[Pen][Phe(4-CN)][β3hE][dK]-NH2 / II: Ac-[Pen][NMeR]SDTL[Pen][Phe(4-CN)][β3hE][dK]-NH2; disulfide I:1-I:7, II:1-II:7; linker I:10-II:10 via Diglycolyl)",< 0.01 µM
7,"CC(=O)N[C@@H]1C(=O)N(C)[C@@H](CCCNC(=N)N)C(=O)N[C@@H](CO)C(=O)N[C@@H](CC(=O)O)C(=O)N[C@@H]([C@@H](C)O)C(=O)N[C@@H](CC(C)C)C(=O)N[C@H](C(=O)N[C@@H](Cc2cccc3ccccc23)C(=O)N[C@H](Cc2ccccc2)C(=O)N[C@H](CCCCNC(=O)COCC(=O)NCCCC[C@@H](NC(=O)[C@@H](Cc2ccccc2)NC(=O)[C@H](Cc2cccc3ccccc23)NC(=O)[C@H]2NC(=O)[C@H](CC(C)C)NC(=O)[C@H]([C@@H](C)O)NC(=O)[C@H](CC(=O)O)NC(=O)[C@H](CO)NC(=O)[C@H](CCCNC(=N)N)N(C)C(=O)[C@@H](NC(C)=O)C(C)(C)SSC2(C)C)C(N)=O)C(N)=O)C(C)(C)SSC1(C)C [compound 111] (I: Ac-[Pen][NMeR]SDTL[Pen][1Nal][dF][dK]-NH2 / II: Ac-[Pen][NMeR]SDTL[Pen][1Nal][dF][dK]-NH2; disulfide I:1-I:7, II:1-II:7; linker I:10-II:10 via Diglycolyl)",0.1 to 0.5 µM
8,CC(=O)N[C@@H]1C(=O)N(C)[C@@H](CCCNC(=N)N)C(=O)N[C@@H](CO)C(=O)N[C@@H](CC(=O)O)C(=O)N[C@@H]([C@@H](C)O)C(=O)N[C@@H](CCC(N)=O)C(=O)N[C@H](C(=O)N[C@@H](Cc2ccc(C(C)(C)C)cc2)C(=O)N[C@@H](CCC(=O)O)CC(=O)N[C@H](CCCCNC(=O)CN(CC(=O)NCCCC[C@@H](NC(=O)C[C@H](CCC(=O)O)NC(=O)[C@H](Cc2ccc(C(C)(C)C)cc2)NC(=O)[C@H]2NC(=O)[C@H](CCC(N)=O)NC(=O)[C@H]([C@@H](C)O)NC(=O)[C@H](CC(=O)O)NC(=O)[C@H](CO)NC(=O)[C@H](CCCNC(=N)N)N(C)C(=O)[C@@H](NC(C)=O)C(C)(C)SSC2(C)C)C(N)=O)C(=O)CCN)C(N)=O)C(C)(C)SSC1(C)C [compound 187],0.1 to 0.5 µM
9,"CC(=O)N[C@@H]1C(=O)N(C)[C@@H](CCCNC(=N)N)C(=O)N[C@@H](CO)C(=O)N[C@@H](CC(=O)O)C(=O)N[C@@H]([C@@H](C)O)C(=O)N[C@@H](CC(C)C)C(=O)N[C@H](C(=O)N[C@@H](Cc2cccc3ccccc23)C(=O)N[C@H](CCCNC(=N)N)C(=O)N[C@H](CCCCNC(=O)COCC(=O)NCCCC[C@@H](NC(=O)[C@@H](CCCNC(=N)N)NC(=O)[C@H](Cc2cccc3ccccc23)NC(=O)[C@H]2NC(=O)[C@H](CC(C)C)NC(=O)[C@H]([C@@H](C)O)NC(=O)[C@H](CC(=O)O)NC(=O)[C@H](CO)NC(=O)[C@H](CCCNC(=N)N)N(C)C(=O)[C@@H](NC(C)=O)C(C)(C)SSC2(C)C)C(N)=O)C(N)=O)C(C)(C)SSC1(C)C [compound 114] (I: Ac-[Pen][NMeR]SDTL[Pen][1Nal][dR][dK]-NH2 / II: Ac-[Pen][NMeR]SDTL[Pen][1Nal][dR][dK]-NH2; disulfide I:1-I:7, II:1-II:7; linker I:10-II:10 via Diglycolyl)",0.1 to 0.5 µM
